From PubChem BioAssay (NCI)
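The compound was tested at five concentrations on cells cultured in 96-well plates, with a 48-hour exposure period. Definition used: TGI = concentration required for complete inhibition of growth.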

Columns and labels:
Experiment in all cases: DTP human tumour cell line panel, 48 h
SW-620 colon = tested on: SW-620 colon
OVCAR-4 ovarian = tested on: OVCAR-4 ovarian
A498 renal = tested on: A498 renal
OVCAR-8 ovarian = tested on: OVCAR-8 ovarian
T-47D breast = tested on: T-47D breast
SNB-19 CNS = tested on: SNB-19 CNS
M14 melanoma = tested on: M14 melanoma
NCI-H23 lung = tested on: NCI-H23 lung
NCI-H460 lung = tested on: NCI-H460 lung
SK-MEL-2 melanoma = tested on: SK-MEL-2 melanoma
SF-295 CNS = tested on: SF-295 CNS
SF-539 CNS = tested on: SF-539 CNS
IGROV1 ovarian = tested on: IGROV1 ovarian
HCT-15 colon = tested on: HCT-15 colon
MDA-MB-231 breast = tested on: MDA-MB-231 breast
CAKI-1 renal = tested on: CAKI-1 renal
OVCAR-3 ovarian = tested on: OVCAR-3 ovarian
NCI-H522 lung = tested on: NCI-H522 lung
HCT-116 colon = tested on: HCT-116 colon
SK-MEL-5 melanoma = tested on: SK-MEL-5 melanoma
HOP-62 NSCLC = tested on: HOP-62 NSCLC
TK-10 renal = tested on: TK-10 renal
SK-MEL-28 melanoma = tested on: SK-MEL-28 melanoma
MCF7 breast = tested on: MCF7 breast
SR leukemia = tested on: SR leukemia
HS 578T breast = tested on: HS 578T breast
BT-549 breast = tested on: BT-549 breast
LOX IMVI melanoma = tested on: LOX IMVI melanoma
MOLT-4 leukemia = tested on: MOLT-4 leukemia
EKVX NSCLC = tested on: EKVX NSCLC
SF-268 CNS = tested on: SF-268 CNS
CCRF-CEM leukemia = tested on: CCRF-CEM leukemia
786-0 renal = tested on: 786-0 renal
SNB-75 CNS = tested on: SNB-75 CNS
U251 CNS = tested on: U251 CNS
RPMI-8226 leukemia = tested on: RPMI-8226 leukemia
PC-3 prostate = tested on: PC-3 prostate
UACC-62 melanoma = tested on: UACC-62 melanoma
UO-31 renal = tested on: UO-31 renal
HT29 colon = tested on: HT29 colon
RXF 393 renal = tested on: RXF 393 renal
SN12C renal = tested on: SN12C renal
HOP-92 NSCLC = tested on: HOP-92 NSCLC
UACC-257 melanoma = tested on: UACC-257 melanoma
MDA-MB-435 = tested on: MDA-MB-435
K-562 leukemia = tested on: K-562 leukemia
ACHN renal = tested on: ACHN renal
MALME-3M melanoma = tested on: MALME-3M melanoma
KM12 colon = tested on: KM12 colon
DU-145 prostate = tested on: DU-145 prostate
NCI-H226 lung = tested on: NCI-H226 lung
SK-OV-3 ovarian = tested on: SK-OV-3 ovarian
OVCAR-5 ovarian = tested on: OVCAR-5 ovarian
COLO 205 colon = tested on: COLO 205 colon
A549 NSCLC = tested on: A549 NSCLC
NCI/ADR-RES ovarian = tested on: NCI/ADR-RES ovarian

Measured: TGI

Cc1cc(C(O)CNC(C)CCn2cnc3c2c(=O)n(C)c(=O)n3C)ccc1O (stereo unspecified)
> 100 µM: all assays above
